Experiments:
Assay type in all cases: cell-based
human TLR7 = human TLR7 (Homo sapiens (Human), UniProt Q9NYK1); test: TLR7 inhibition reporter assay (HEK-Blue, SEAP); settings: HEK-Blue cells overexpressing human TLR7, gardiquimod 7.5 μM stimulation
Experimental: (§1) TLR7/8/9 Inhibition Reporter Assays
(§2) HEK-Blue™-cells (Invivogen) overexpressing human TLR7, TLR8 or TLR9 receptors were used for screening inhibitors of these receptors using an inducible SEAP (secreted embryonic alkaline phosphatase) reporter gene under the control of the IFN-β minimal promoter fused to five NF-κc Band AP-1-binding sites. Briefly, cells are seeded into Greiner 384 well plates (15000 cells per well for TLR7, 20,000 for TLR8 and 25,000 for TLR9) and then treated with test compounds in DMSO to yield a final dose response concentration range of 0.05 nM-50 μM. After a 30 minute compound pre-treatment at room temperature, the cells are then stimulated with a TLR7 ligand (gardiquimod at a final concentration of 7.5 μM), TLR8 ligand (R848 at a final concentration of 15.9 μM) or TLR9 ligand (ODN2006 at final concentration of 5 nM) to activate NF-κB and AP-1 which induce the production of SEAP. After a 22 hour incubation at 37° C., 5% CO2, SEAP levels are determined with the addition of HEK-Bue™ Detection reagent (Invivogen), a cell culture medium that allows for detection of SEAP, according to manufacturer's specifications. The percent inhibition is determined as the % reduction in the HEK-Blue signal present in wells treated with agonist plus DMSO alone compared to wells treated with a known inhibitor.

human TLR8 = human TLR8 (Homo sapiens (Human), UniProt Q9NR97); test: TLR8 inhibition reporter assay (HEK-Blue, SEAP); settings: HEK-Blue cells overexpressing human TLR8, R848 15.9 μM stimulation
Experimental: as §1, §2

human TLR9 = human TLR9 (Homo sapiens (Human), UniProt Q9NR96); test: TLR9 inhibition reporter assay (HEK-Blue, SEAP); settings: HEK-Blue cells overexpressing human TLR9, ODN2006 5 nM stimulation
Experimental: as §1, §2

Sequence of human TLR8 (Q9NR97 27-1041): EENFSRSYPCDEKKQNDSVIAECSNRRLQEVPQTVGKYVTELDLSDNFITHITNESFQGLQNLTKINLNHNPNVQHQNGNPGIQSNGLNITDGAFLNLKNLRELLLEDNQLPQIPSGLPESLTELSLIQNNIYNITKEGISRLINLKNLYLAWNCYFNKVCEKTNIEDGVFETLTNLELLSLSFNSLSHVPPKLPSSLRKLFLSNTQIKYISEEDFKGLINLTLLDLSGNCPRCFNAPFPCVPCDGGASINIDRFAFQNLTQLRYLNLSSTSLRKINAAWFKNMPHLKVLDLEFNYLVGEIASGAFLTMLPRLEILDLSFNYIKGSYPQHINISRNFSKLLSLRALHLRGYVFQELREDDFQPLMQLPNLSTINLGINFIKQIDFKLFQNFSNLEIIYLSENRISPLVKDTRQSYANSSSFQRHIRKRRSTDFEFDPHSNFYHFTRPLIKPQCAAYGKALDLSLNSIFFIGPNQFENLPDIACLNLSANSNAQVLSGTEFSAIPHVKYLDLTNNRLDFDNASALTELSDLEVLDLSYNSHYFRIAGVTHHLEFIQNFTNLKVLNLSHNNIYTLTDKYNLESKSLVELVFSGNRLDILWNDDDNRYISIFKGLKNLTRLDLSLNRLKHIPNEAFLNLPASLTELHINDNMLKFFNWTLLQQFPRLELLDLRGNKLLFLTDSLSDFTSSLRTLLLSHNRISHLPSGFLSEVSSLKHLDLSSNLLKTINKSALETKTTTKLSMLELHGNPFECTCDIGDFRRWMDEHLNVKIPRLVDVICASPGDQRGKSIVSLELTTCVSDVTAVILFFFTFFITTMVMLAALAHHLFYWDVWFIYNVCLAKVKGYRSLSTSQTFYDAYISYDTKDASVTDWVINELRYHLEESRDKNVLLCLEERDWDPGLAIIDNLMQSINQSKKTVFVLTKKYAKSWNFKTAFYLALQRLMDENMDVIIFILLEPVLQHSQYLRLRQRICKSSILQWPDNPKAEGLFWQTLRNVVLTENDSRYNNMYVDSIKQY
Sequence of human TLR7 (Q9NYK1 27-1049): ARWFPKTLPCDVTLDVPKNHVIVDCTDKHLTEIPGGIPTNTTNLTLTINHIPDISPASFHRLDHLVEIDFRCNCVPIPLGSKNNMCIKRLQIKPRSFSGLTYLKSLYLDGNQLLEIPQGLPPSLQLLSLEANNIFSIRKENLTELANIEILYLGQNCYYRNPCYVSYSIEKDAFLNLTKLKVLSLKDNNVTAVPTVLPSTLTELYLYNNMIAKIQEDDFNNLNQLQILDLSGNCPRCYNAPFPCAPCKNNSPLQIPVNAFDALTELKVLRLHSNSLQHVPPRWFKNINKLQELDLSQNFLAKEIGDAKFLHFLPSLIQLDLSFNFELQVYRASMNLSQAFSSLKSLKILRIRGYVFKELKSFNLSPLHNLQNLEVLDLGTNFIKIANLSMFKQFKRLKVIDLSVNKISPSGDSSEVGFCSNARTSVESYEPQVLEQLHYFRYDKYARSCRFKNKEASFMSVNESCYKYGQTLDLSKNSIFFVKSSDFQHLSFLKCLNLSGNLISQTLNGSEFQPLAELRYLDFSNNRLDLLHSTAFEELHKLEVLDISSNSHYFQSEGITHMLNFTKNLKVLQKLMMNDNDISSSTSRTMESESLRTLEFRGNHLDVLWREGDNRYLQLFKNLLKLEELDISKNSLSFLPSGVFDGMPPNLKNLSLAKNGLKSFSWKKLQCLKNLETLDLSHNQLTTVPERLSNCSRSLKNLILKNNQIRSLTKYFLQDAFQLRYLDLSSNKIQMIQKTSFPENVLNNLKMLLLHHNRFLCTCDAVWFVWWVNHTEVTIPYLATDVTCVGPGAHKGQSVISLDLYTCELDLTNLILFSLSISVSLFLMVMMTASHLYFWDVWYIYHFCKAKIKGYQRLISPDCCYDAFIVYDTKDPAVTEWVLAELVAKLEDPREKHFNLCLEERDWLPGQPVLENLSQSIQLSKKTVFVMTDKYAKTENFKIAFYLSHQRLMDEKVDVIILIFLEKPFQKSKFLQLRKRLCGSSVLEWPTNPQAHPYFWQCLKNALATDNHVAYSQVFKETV
Sequence of human TLR9 (Q9NR96 26-1032): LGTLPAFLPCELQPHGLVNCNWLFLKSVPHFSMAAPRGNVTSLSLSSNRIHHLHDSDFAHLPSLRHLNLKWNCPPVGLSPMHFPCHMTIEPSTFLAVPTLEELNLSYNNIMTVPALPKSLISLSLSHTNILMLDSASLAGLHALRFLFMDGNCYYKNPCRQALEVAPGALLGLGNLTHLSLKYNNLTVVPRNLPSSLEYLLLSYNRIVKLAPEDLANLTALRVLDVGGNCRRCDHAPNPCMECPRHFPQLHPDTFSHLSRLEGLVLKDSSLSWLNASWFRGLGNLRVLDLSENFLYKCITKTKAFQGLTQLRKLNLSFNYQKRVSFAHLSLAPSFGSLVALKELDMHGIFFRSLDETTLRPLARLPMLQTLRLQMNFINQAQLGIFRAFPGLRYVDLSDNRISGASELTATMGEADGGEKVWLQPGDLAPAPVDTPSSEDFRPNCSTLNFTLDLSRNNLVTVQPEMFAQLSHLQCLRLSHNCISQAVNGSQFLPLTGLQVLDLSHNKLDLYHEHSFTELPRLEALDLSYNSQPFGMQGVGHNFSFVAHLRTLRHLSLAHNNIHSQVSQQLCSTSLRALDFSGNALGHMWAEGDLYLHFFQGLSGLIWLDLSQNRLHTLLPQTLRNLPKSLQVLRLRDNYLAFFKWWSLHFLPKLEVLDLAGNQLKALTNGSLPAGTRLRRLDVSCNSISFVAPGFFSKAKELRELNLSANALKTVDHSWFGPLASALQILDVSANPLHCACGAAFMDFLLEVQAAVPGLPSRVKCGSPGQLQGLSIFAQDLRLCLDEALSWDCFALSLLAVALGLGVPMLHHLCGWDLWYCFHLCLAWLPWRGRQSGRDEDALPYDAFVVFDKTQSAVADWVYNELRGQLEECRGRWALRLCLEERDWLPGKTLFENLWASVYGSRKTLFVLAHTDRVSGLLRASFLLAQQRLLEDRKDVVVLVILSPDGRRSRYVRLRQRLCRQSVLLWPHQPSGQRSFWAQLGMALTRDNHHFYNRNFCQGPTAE

| SMILES | IC50 (human TLR7) | IC50 (human TLR8) | IC50 (human TLR9) |
| --- | --- | --- | --- |
| COc1ccc(-c2[nH]c3ccc(-c4ccnc(C(=O)NC5CCN(C(C)C)CC5)c4)cc3c2C(C)C)cc1OC [Example 11, 4-(2-(3,4-dimethoxyphenyl)-3-isopropyl-1H-indol-5-yl)-N-(1-isopropylpiperidin-4-yl)picolinamide] | 22 nM | 18 nM | 665 nM |
| COc1ccc(-c2[nH]c3ccc(-c4ccnc(C(=O)NC5CCC(N)CC5)c4)cc3c2C(C)C)cc1OC (stereo not drawn) [Example 12, N-(4-aminocyclohexyl)-4-(2-(3,4-dimethoxyphenyl)-3-isopropyl-1H-indol-5-yl)picolinamide] | 69 nM | 37 nM | 2160 nM |
| COc1ccc(-c2[nH]c3ccc(-c4ccnc(C(=O)N[C@H]5CC[C@H](C(C)(C)O)CC5)c4)cc3c2C(C)C)cc1OC [Example 13, 4-(2-(3,4-dimethoxyphenyl)-3-isopropyl-1H-indol-5-yl)-N-((1r,4r)-4-(2-hydroxypropan-2-yl)cyclohexyl)picolinamide] | 1240 nM | 1010 nM | > 50000 nM |
| COc1ccc(-c2[nH]c3ccc(-c4ccnc(C(=O)N5CCNCC5)c4)cc3c2C(C)C)cc1OC [Example 14, (4-(2-(3,4-dimethoxyphenyl)-3-isopropyl-1H-indol-5-yl)pyridin-2-yl)(piperazin-1-yl)methanone] | 1070 nM | 1040 nM | > 50000 nM |
| Cc1cc(-c2[nH]c3ccc(-c4cccc(C(=O)N5CC6CNCC6C5)c4)cc3c2C(C)C)ccn1 (stereo not drawn) [Example 15, (hexahydropyrrolo[3,4-c]pyrrol-2(1H)-yl)(3-(3-isopropyl-2-(2-methylpyridin-4-yl)-1H-indol-5-yl)phenyl)methanone] | 27 nM | 6.8 nM | 738 nM |
| Cc1cc(-c2[nH]c3ccc(-c4cccc(C(=O)NC5CCN(C(C)C)CC5)c4)cc3c2C(C)C)ccn1 [Example 16, 3-(3-isopropyl-2-(2-methylpyridin-4-yl)-1H-indol-5-yl)-N-(1-isopropylpiperidin-4-yl)benzamide] | 149 nM | 39 nM | 14000 nM |
| COc1ccc(-c2[nH]c3ccc(-c4nnc(C5CCN(CC(=O)N(C)C)CC5)o4)cc3c2C(C)C)cc1OC [Example 17, 2-(4-(5-(2-(3,4-dimethoxyphenyl)-3-isopropyl-1H-indol-5-yl)-1,3,4-oxadiazol-2-yl)piperidin-1-yl)-N,N-dimethylacetamide] | 108 nM | 17 nM | 6440 nM |
| CNCC(=O)N1CCC(c2nnc(-c3ccc4[nH]c(-c5ccc(OC)c(OC)c5)c(C(C)C)c4c3)o2)CC1 [Example 18, 1-(4-(5-(2-(3,4-dimethoxyphenyl)-3-isopropyl-1H-indol-5-yl)-1,3,4-oxadiazol-2-yl)piperidin-1-yl)-2-(methylamino)ethan-1-one] | 42 nM | 9.5 nM | 625 nM |
| COc1ccc(-c2[nH]c3ccc(-c4nnc(C5CCN(C(=O)OC(C)(C)C)CC5)o4)cc3c2C(C)C)cc1OC [Example 19, tert-butyl 4-(5-(2-(3,4-dimethoxyphenyl)-3-isopropyl-1H-indol-5-yl)-1,3,4-oxadiazol-2-yl)piperidine-1-carboxylate] | 2510 nM | 484 nM | > 50000 nM |
| COc1ccc(-c2[nH]c3ccc(-c4nnc(C5CCN(C)CC5)o4)cc3c2C(C)C)cc1OC [Example 20, 2-(2-(3,4-dimethoxyphenyl)-3-isopropyl-1H-indol-5-yl)-5-(1-methylpiperidin-4-yl)-1,3,4-oxadiazole] | 31 nM | 4.8 nM | 821 nM |
| COc1ccc(-c2[nH]c3ccc(-c4nnc(C5CCN(C6CCN(C)CC6)CC5)o4)cc3c2C(C)C)cc1OC [Example 21, 2-(2-(3,4-dimethoxyphenyl)-3-isopropyl-1H-indol-5-yl)-5-(1′-methyl-[1,4′-bipiperidin]-4-yl)-1,3,4-oxadiazole] | 60 nM | 20 nM | 626 nM |
| COc1ccc(-c2[nH]c3ccc(-c4nnc(C5CCN(C6CCN(C(C)C)CC6)CC5)o4)cc3c2C(C)C)cc1OC [Example 22, 2-(2-(3,4-dimethoxyphenyl)-3-isopropyl-1H-indol-5-yl)-5-(1′-isopropyl-[1,4′-bipiperidin]-4-yl)-1,3,4-oxadiazole] | 36 nM | 11 nM | 266 nM |
| CNC(=O)CN1CCC(c2nnc(-c3ccc4[nH]c(-c5ccc(OC)c(OC)c5)c(C(C)C)c4c3)o2)CC1 [Example 23, 2-(4-(5-(2-(3,4-dimethoxyphenyl)-3-isopropyl-1H-indol-5-yl)-1,3,4-oxadiazol-2-yl)piperidin-1-yl)-N-methylacetamide] | 207 nM | 43 nM | 6100 nM |
| CNCCN1CCC(c2nnc(-c3ccc4[nH]c(-c5ccc(OC)c(OC)c5)c(C(C)C)c4c3)o2)CC1 [Example 24, 2-(4-(5-(2-(3,4-dimethoxyphenyl)-3-isopropyl-1H-indol-5-yl)-1,3,4-oxadiazol-2-yl)piperidin-1-yl)-N-methylethan-1-amine] | 56 nM | 3.7 nM | 179 nM |
| COc1ccc(-c2[nH]c3ccc(-c4cccc(C(=O)NCCC5CCCN5C)c4)cc3c2CC(F)(F)F)cc1OC (stereo not drawn) [Example 25, 3-(2-(3,4-dimethoxyphenyl)-3-(2,2,2-trifluoroethyl)-1H-indol-5-yl)-N-(2-(1-methylpyrrolidin-2-yl)ethyl)benzamide] | 190 nM | 88 nM | 1380 nM |
| COc1ccc(-c2[nH]c3ccc(-c4cccc(C(=O)NCCNC(C)=O)c4)cc3c2CC(F)(F)F)cc1OC [Example 26, N-(2-acetamidoethyl)-3-(2-(3,4-dimethoxyphenyl)-3-(2,2,2-trifluoroethyl)-1H-indol-5-yl)benzamide] | 1000 nM | 73 nM | 32900 nM |
| COc1ccc(-c2[nH]c3ccc(-c4cccc(C(=O)NCC#N)c4)cc3c2CC(F)(F)F)cc1OC [Example 27, N-(cyanomethyl)-3-(2-(3,4-dimethoxyphenyl)-3-(2,2,2-trifluoroethyl)-1H-indol-5-yl)benzamide] | 744 nM | 82 nM | 41100 nM |
| COc1ccc(-c2[nH]c3ccc(-c4cccc(C(=O)NCC(N)=O)c4)cc3c2CC(F)(F)F)cc1OC [Example 28, N-(2-amino-2-oxoethyl)-3-(2-(3,4-dimethoxyphenyl)-3-(2,2,2-trifluoroethyl)-1H-indol-5-yl)benzamide] | 587 nM | 94 nM | 32600 nM |
| COc1ccc(-c2[nH]c3ccc(-c4cccc(C(=O)NCCN5CCOCC5)c4)cc3c2CC(F)(F)F)cc1OC [Example 29, 3-(2-(3,4-dimethoxyphenyl)-3-(2,2,2-trifluoroethyl)-1H-indol-5-yl)-N-(2-morpholinoethyl)benzamide] | 416 nM | 55 nM | 7290 nM |
| COc1ccc(-c2[nH]c3ccc(-c4cccc(C(=O)N5CCN(CC(=O)NC(C)C)CC5)c4)cc3c2CC(F)(F)F)cc1OC [Example 30, 2-(4-(3-(2-(3,4-dimethoxyphenyl)-3-(2,2,2-trifluoroethyl)-1H-indol-5-yl)benzoyl)piperazin-1-yl)-N-isopropylacetamide] | 1990 nM | 165 nM | 14300 nM |
| COc1ccc(-c2[nH]c3ccc(-c4cccc(C(=O)N5CCC(O)CC5)c4)cc3c2CC(F)(F)F)cc1OC [Example 31, (3-(2-(3,4-dimethoxyphenyl)-3-(2,2,2-trifluoroethyl)-1H-indol-5-yl)phenyl)(4-hydroxypiperidin-1-yl)methanone] | 895 nM | 307 nM | 25800 nM |
| COc1ccc(-c2[nH]c3ccc(-c4cccc(C(=O)N5CCCC5C)c4)cc3c2CC(F)(F)F)cc1OC (stereo not drawn) [Example 32, (3-(2-(3,4-dimethoxyphenyl)-3-(2,2,2-trifluoroethyl)-1H-indol-5-yl)phenyl)(2-methylpyrrolidin-1-yl)methanone] | 2620 nM | 1110 nM | > 50000 nM |
| COc1ccc(-c2[nH]c3ccc(-c4cccc(C(=O)N5CC[C@@H](O)C5)c4)cc3c2CC(F)(F)F)cc1OC [Example 34, (R)-(3-(2-(3,4-dimethoxyphenyl)-3-(2,2,2-trifluoroethyl)-1H-indol-5-yl)phenyl)(3-hydroxypyrrolidin-1-yl)methanone] | 776 nM | 199 nM | 14700 nM |
| COc1ccc(-c2[nH]c3ccc(-c4cccc(C(=O)N(C)CCc5ccccn5)c4)cc3c2CC(F)(F)F)cc1OC [Example 35, 3-(2-(3,4-dimethoxyphenyl)-3-(2,2,2-trifluoroethyl)-1H-indol-5-yl)-N-methyl-N-(2-(pyridin-2-yl)ethyl)benzamide] | 974 nM | 71 nM | > 50000 nM |
| COc1ccc(-c2[nH]c3ccc(-c4cccc(C(=O)N5CCN(c6ccncc6)CC5)c4)cc3c2CC(F)(F)F)cc1OC [Example 36, (3-(2-(3,4-dimethoxyphenyl)-3-(2,2,2-trifluoroethyl)-1H-indol-5-yl)phenyl)(4-(pyridin-4-yl)piperazin-1-yl)methanone] | 287 nM | 102 nM | 1800 nM |
